Biological target: T1, PfPRMT5 (Plasmodium falciparum, UniProt Q8ID96)
T1 construct: gene PF3D7_1361000; protein A part cut by TEV, protein C tag kept; associated parasite proteins may co-purify
T1 sequence (Q8ID96 1-724): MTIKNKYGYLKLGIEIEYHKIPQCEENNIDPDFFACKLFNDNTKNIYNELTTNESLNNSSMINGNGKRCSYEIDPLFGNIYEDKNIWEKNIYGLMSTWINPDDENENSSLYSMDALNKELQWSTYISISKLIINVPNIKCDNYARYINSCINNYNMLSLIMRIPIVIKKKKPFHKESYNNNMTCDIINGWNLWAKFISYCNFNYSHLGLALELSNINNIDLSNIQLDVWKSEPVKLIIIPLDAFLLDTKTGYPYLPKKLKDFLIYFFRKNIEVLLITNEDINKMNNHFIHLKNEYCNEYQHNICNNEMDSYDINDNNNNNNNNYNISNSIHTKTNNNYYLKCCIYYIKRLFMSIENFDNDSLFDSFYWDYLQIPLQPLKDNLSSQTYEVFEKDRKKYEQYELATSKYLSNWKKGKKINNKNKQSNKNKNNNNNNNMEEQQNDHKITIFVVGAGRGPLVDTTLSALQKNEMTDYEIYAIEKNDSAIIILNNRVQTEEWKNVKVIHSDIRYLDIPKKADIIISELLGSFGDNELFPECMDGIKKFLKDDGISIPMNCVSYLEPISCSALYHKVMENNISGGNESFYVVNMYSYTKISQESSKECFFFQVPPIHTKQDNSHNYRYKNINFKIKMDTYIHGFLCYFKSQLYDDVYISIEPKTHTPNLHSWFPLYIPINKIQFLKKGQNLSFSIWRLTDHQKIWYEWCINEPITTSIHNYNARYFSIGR
Assay: MTase-Glo luminescence methyltransferase assay
Assay type: biochemical
Conditions: 30 min pre-incubation at 37 °C, 115 µM PfPRMT5 as printed, 10 µM SAM, 0.1 µM human recombinant mononucleosomes, pH 8.0, 60 min

Question: `Nc1nc2cc(CC[C@H]3C[C@@H](n4ccc5c(N)ncnc54)[C@H](O)[C@@H]3O)ccc2cc1Br` [onametostat] was tested. Which “% reduction of activity at 1:1 molar ratio PfPRMT5:onametostat” value did it give?
Answer: ~ 48%

— article PMC11459956, “Onametostat, a PfPRMT5 inhibitor, exhibits antimalarial activity to Plasmodium falciparum” (Antimicrobial Agents and Chemotherapy, 2024)
